Measured values: ChEMBL document CHEMBL1146053, “Discovery and optimization of a novel series of liver X receptor-alpha agonists” (Bioorg Med Chem Lett, 2006)

biological target: T1, Oxysterols receptor LXR-alpha (Homo sapiens, UniProt Q13133); assay: Activity against LXR alpha transiently transfected in HEK293 cells; assay type: cell-based; details: not given
T1 sequence (Q13133 whole entry): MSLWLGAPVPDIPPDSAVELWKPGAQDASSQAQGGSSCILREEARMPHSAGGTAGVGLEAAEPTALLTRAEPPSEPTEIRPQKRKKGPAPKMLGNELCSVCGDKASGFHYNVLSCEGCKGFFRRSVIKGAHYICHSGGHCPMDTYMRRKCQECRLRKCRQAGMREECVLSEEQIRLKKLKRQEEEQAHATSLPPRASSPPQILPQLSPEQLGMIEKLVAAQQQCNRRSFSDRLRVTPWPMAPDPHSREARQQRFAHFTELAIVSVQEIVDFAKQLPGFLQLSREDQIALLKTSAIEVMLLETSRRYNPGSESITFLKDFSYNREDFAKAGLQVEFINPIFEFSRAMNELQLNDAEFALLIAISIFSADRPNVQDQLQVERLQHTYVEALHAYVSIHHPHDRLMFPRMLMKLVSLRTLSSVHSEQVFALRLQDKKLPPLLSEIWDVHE

Compound | EC50
CN(c1ccccc1)S(=O)(=O)c1ccc(C(O)(C(F)(F)F)C(F)(F)F)cc1 | 100 nM
CN(C(=O)c1ccc(C(O)(C(F)(F)F)C(F)(F)F)cc1)c1ccccc1 | 200 nM
CN(c1ccc(C(O)C(F)(F)F)cc1)S(=O)(=O)c1ccccc1 (stereo unspecified) | > 5000 nM
CC(C)COC(=O)N(C)c1ccc(C(O)(C(F)(F)F)C(F)(F)F)cc1 | 100 nM
COC(c1ccc(N(C)S(=O)(=O)c2ccccc2)cc1)(C(F)(F)F)C(F)(F)F | 1000 nM
CN(c1cccc(C(O)(C(F)(F)F)C(F)(F)F)c1)S(=O)(=O)c1ccccc1 | 1000 nM
CN(c1ccc(C(O)(C(F)(F)F)C(F)(F)F)c(Cl)c1)S(=O)(=O)c1ccccc1 | > 5000 nM
O=S(=O)(c1ccccc1)N1CCc2cc(C(O)(C(F)(F)F)C(F)(F)F)ccc21 | 50 nM
CN(c1ccc(C(O)(C(F)(F)F)C(F)(F)F)cc1)S(=O)(=O)c1cccs1 | 600 nM
CN(c1ccc(C(O)(C(F)(F)F)C(F)(F)F)cc1)S(=O)(=O)c1cccc(S(N)(=O)=O)c1 | 80 nM
CN(c1ccc(C(O)(C(F)(F)F)C(F)(F)F)cc1)S(=O)(=O)c1cccc(C#N)c1 | 20 nM
CN(c1ccc(C(O)(C(F)(F)F)C(F)(F)F)cc1)S(=O)(=O)c1cccc(-c2ccccc2)c1 | 30 nM
O=S(=O)(c1ccccc1)N(c1ccc(C(O)(C(F)(F)F)C(F)(F)F)cc1)C1CCCC1 | 8 nM
CN(c1ccc(C(O)(C(F)(F)F)C(F)(F)F)cc1)S(=O)(=O)c1ccc(C#N)cc1 | 2000 nM
CN(C(=O)c1ccccc1)c1ccc(C(O)(C(F)(F)F)C(F)(F)F)cc1 | 100 nM
CN(c1ccc(C(O)(C(F)(F)F)C(F)(F)F)cc1Cl)S(=O)(=O)c1ccccc1 | 200 nM
O=S(=O)(c1ccccc1)N1CCCCc2cc(C(O)(C(F)(F)F)C(F)(F)F)ccc21 | 10 nM
CN(Cc1ccc(C(O)(C(F)(F)F)C(F)(F)F)cc1)S(=O)(=O)c1ccccc1 | 3000 nM
CC(C)CN(c1ccc(C(O)(C(F)(F)F)C(F)(F)F)cc1)S(=O)(=O)c1cccs1 | 40 nM
O=S(=O)(c1ccccc1)N1CCCc2cc(C(O)(C(F)(F)F)C(F)(F)F)ccc21 | 30 nM
O=S(=O)(c1ccccc1)N1CCOc2cc(C(O)(C(F)(F)F)C(F)(F)F)ccc21 | 100 nM
O=S(=O)(Nc1ccc(C(O)(C(F)(F)F)C(F)(F)F)cc1)c1ccccc1 | 4000 nM
CN(c1ccc(C(C)(O)C(F)(F)F)cc1)S(=O)(=O)c1ccccc1 (stereo unspecified) | 5000 nM
CN(c1ccc(C(O)(C(F)(F)F)C(F)(F)F)cc1)S(=O)(=O)c1ccccc1C#N | 700 nM
C[C@H](CC[C@@H]1OC1(C)C)[C@H]1CC[C@H]2[C@@H]3CC=C4C[C@@H](O)CC[C@]4(C)[C@H]3CC[C@]12C [24(S),25-EPOXYCHOLESTEROL] | 500 nM

test system: not listed separately; assay: Half life in mice at 5 mg/kg, po; assay type: ADME, organism-based; design: dose 5 mg/kg, route oral; details: mouse, in vivo

Compound | half-life
O=S(=O)(c1ccccc1)N(CC(F)(F)F)c1ccc(C(O)(C(F)(F)F)C(F)(F)F)cc1 [T091317] | 3 h

test system: not listed separately; assay: AUC in mice at 5 mg/kg, po; assay type: ADME, organism-based; design: dose 5 mg/kg, route oral; details: mouse, plasma

Compound | AUC
O=S(=O)(c1ccccc1)N(CC(F)(F)F)c1ccc(C(O)(C(F)(F)F)C(F)(F)F)cc1 [T091317] | 3420 ng·h/mL

test system: not listed separately; assay: Half life in dog at 5 mg/kg, po; assay type: ADME, organism-based, Canis lupus familiaris; design: dose 5 mg/kg, route oral; details: in vivo

Compound | half-life
O=S(=O)(c1ccccc1)N(CC(F)(F)F)c1ccc(C(O)(C(F)(F)F)C(F)(F)F)cc1 [T091317] | 5.8 h

test system: not listed separately; assay: AUC in dog at 5 mg/kg, po; assay type: ADME, organism-based, Canis lupus familiaris; design: dose 5 mg/kg, route oral; details: plasma

Compound | AUC
O=S(=O)(c1ccccc1)N(CC(F)(F)F)c1ccc(C(O)(C(F)(F)F)C(F)(F)F)cc1 [T091317] | 7300 ng·h/mL

test system: not listed separately; assay: AUC in Sprague-Dawley rat at 5 mg/kg, po; assay type: ADME, organism-based; design: dose 5 mg/kg, route oral; details: plasma

Compound | AUC
CC(C)CN(c1ccc(C(O)(C(F)(F)F)C(F)(F)F)cc1)S(=O)(=O)c1cccs1 | 3200 ng·h/mL
O=S(=O)(c1ccccc1)N(CC(F)(F)F)c1ccc(C(O)(C(F)(F)F)C(F)(F)F)cc1 [T091317] | 5920 ng·h/mL
